Source: PMC4368451 (Cancer chemotherapy and pharmacology, 2015)

Tests used:
[1] = system: A549 tumor; assay type: in vivo, Female athymic NCr-nu/nu nude mice; conditions: 5 mg/kg i.p. on four consecutive days
[2] = system: SW620 (colorectal adenocarcinoma) cells; test: Cell cycle distribution; assay type: cell-based; conditions: SW620, 24 hours
[3] = Prodrug processing in plasma or whole blood; assay type: in vitro ADME
[4] = system: A549 non-small cell lung carcinoma xenograft; test: A549 xenograft model; assay type: in vivo, Female athymic NCr-nu/nu nude mice; conditions: for TGI % (tumor growth inhibition): 5 mg/kg i.p. every other day for 13 days, day 23, relative to control; for tumor growth: 5 mg/kg i.p. every other day for thirteen days

Molecule	acetylated H3 and H4 in tumor lysates (western blot) relative to control [1]	cell cycle dose dependence [2]	concentration for G2 arrest [2] [nM]	prodrug level after room temperature incubation in plasma or whole blood [3]	TGI % (tumor growth inhibition) [4] [%]	TGI % (tumor growth inhibition) ([4]; listed as Larg.) [%]	tumor growth [4]
CCCCCCCC(=O)SCC/C=C/[C@@H]1CC(=O)NCc2nc(cs2)C2=N[C@@](C)(CS2)C(=O)N[C@@H](C(C)C)C(=O)O1 [Largazole]	increased acetylation relative to control	clear switch from G1 to G2 arrest with increasing concentration	> 50	< LLOQ after ten minutes	32	32	tumor growth rate was slower
Largazole thiol							tumor growth rate was slower
